Data: patent publication US5827837A, “Polyanion anti-inflammatory agents” (priority 1996, dated 1998)

Experiments:
[1] = target: T1, P-selectin-lg fusion protein (Homo sapiens, UniProt P16109); assay: LS 180 colon cancer cell adhesion to immobilized P-selectin-Ig; format: cell-based
T1 construct: Each selectin-lg contains the lectin domain, epidermal growth factor domain, and one (L-selectin-lg), two (P-selectin-lg) or six (E-selectin-lg) complement regulatory repeats; made in house
Method: Cell adhesion assays on immobilized selectin-lg were performed essentially as described (Nelson, R. M., et al., J. Clin. Invest., 91:1157, 1993; Nelson, R. M., et al., Symposia on Quant. Biol., 57:271, 1992). Briefly, Nunclon Terasaki Microwell plates were coated overnight with 5 μl/well of a 5 μg/ml solution of protein A (Chemicon, Temecula, Calif.) in 50 mM carbonate buffer, pH 9.5. Protein-A-coated plates were washed with Dulbecco's phosphate buffered saline (PBS), incubated for 1 hour with L-, P-, or E-selectin-lg fusion proteins in PBS (5-20 μg/ml), washed again, and blocked with PBS containing 1% human serum albumin (HSA). To measure inhibition of cell adhesion, 5 μl/well of lnsP6 in PBS was added to the selectin-lg coated plates and incubated for 30 min at […]. LS 180 cells were harvested by brief trypsinization and resuspended at 1.5×10^6 cells/ml in PBS containing 1% HSA; five μl/well of suspension was added, and incubated for 30 min at 4° C. After washing to remove unbound cells, adherent cells were fixed with glutaraldehyde (2.5% in PBS) and counted. Symbols and error bars represent mean number of adherent cells/mm^2 ±s.e.m., counted in quadruplicate wells in a single experiment representative of three. No LS 180 cell adhesion was detected on plates coated with protein A alone, or on plates coated with protein A-captured CD8-lg fusion protein.
LS 180 cells (ATCC, Rockville, Md.) were added to cell culture wells containing protein A-captured selectin-lg fusion proteins and incubated for 30 min at 4° C. to allow adhesion. The plates were washed to remove unbound cells and adherent cells were counted microscopically. To determine adhesion blocking activity, InsP6 at the indicated concentrations was added to selectin-lg-coated wells 30 min prior to addition of LS 180 cells.

P-selectin (P-COS) = target: T2, P-selectin (P-COS) (Homo sapiens, UniProt P16109); assay: PMN adhesion to P-selectin transfected COS cells (P-COS); format: cell-based; details: for PMN adhesion to P-selectin transfected COS: inositol up to 10 mM, InsP6 0.5 mM
T2 construct: adhesion of human PMN or HL60
T2 sequence (P16109 42-830): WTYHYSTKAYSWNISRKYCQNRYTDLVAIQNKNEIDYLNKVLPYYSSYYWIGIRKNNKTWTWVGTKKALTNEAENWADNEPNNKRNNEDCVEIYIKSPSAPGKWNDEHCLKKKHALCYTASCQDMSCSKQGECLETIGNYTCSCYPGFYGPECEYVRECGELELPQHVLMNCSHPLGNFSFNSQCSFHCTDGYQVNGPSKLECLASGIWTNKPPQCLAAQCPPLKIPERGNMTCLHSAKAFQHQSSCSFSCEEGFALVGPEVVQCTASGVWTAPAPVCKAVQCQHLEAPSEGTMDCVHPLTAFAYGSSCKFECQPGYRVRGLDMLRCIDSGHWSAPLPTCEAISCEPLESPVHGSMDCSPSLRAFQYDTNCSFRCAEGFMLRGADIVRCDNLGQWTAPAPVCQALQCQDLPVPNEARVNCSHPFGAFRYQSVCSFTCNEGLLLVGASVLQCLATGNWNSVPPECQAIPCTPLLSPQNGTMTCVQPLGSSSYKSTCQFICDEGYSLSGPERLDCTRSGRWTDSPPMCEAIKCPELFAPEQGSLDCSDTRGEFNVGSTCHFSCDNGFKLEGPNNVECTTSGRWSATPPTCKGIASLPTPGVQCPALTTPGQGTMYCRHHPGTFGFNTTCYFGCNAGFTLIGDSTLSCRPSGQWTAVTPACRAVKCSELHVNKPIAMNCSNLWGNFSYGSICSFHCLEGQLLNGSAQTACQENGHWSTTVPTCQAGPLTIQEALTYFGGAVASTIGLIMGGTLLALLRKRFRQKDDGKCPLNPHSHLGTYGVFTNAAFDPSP
Method: COS-1 cells were transfected as described (Seed, B., et al., Proc. Natl. Acad. Sci., U.S.A., 84:3365, 1987; Aruffo, A., Current Protocols In Molecular Biology, eds. supra, 1992) with pCDM7/pCDM8 expression vectors containing the full-length E-, P- and L-selectin cDNA. Transfected COS-1 cells were seeded on gelatin coated coverslips.

T1 sequence (P16109 with tags, fused parts or gaps limits assumed): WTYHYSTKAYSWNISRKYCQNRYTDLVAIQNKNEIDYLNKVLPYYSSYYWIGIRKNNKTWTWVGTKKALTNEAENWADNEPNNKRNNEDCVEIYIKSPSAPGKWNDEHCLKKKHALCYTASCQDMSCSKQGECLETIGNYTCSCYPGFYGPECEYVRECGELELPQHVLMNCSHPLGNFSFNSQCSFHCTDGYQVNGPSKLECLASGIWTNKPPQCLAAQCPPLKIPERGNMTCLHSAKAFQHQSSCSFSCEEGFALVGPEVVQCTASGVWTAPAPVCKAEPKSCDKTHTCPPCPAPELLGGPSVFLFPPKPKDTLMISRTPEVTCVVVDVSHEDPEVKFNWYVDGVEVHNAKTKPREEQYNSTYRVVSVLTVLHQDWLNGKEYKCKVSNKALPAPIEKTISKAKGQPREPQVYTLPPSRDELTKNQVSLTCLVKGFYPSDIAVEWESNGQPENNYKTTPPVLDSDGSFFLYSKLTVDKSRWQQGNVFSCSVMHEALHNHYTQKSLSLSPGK

| inhibition at 4000 µM ([1]; LS180, 4 mM, single experiment) | inhibition at 5000 µM (P-selectin (P-COS); COS, 5 mM, read-out: blocking of PMN adhesion to P-selectin transfected COS) | SMILES | LS 180 adhesion to P-selectin-Ig [1] | PMN adhesion to P-selectin transfected COS (P-selectin (P-COS)) |
| --- | --- | --- | --- | --- |
| – | – | O=P(O)(O)O[C@H]1[C@H](OP(=O)(O)O)[C@@H](OP(=O)(O)O)[C@H](OP(=O)(O)O)[C@@H](OP(=O)(O)O)[C@H]1OP(=O)(O)O [InsP6, myo-inositol hexakisphosphate] | blocked the adhesion of LS 180 cells | blocked PMN adhesion to P-COS |
| ~45% | 63% | O=S(=O)(O)O[C@H]1[C@H](OS(=O)(=O)O)[C@@H](OS(=O)(=O)O)[C@H](OS(=O)(=O)O)[C@@H](OS(=O)(=O)O)[C@H]1OS(=O)(=O)O [InsS6, myo-inositol hexakissulfate] | – | – |
| – | – | O[C@H]1[C@H](O)[C@@H](O)[C@H](O)[C@@H](O)[C@H]1O [myo-inositol, reference compound] | inactive at concentrations up to 5 mM | no effect at concentrations up to 10 mM |
